Values quoted from earlier work, collected in patent US6849271B2, “Microcapsule matrix microspheres, absorption-enhancing pharmaceutical compositions and methods” (Verion, Inc., priority 2001, dated 2005).

Details: published by the FDA

Row | permeability class | Compound
1 | Low | OC[C@@H](O)[C@@H](O)[C@H](O)[C@H](O)CO [Mannitol]
2 | Low | CC1(C)S[C@@H]2[C@H](NC(=O)[C@H](N)c3ccc(O)cc3)C(=O)N2[C@H]1C(=O)O [Amoxicillin]
3 | Low | C[C@](N)(Cc1ccc(O)c(O)c1)C(=O)O [L-Methyldopa]
4 | Low | CNC(=C[N+](=O)[O-])NCCSCc1ccc(CN(C)C)o1 [Ranitidine]
